Where two headings read alike, the source gives them in different places. Square brackets hold non-standard residues; d marks the D form. Peptide text beside a SMILES is read from it. * marks the point of attachment. X1 = Cc1ccc(Nc2ncc3c(n2)N(C)C(=O)N(c2cc(C(=O)*)ccc2C)C3)cn1; Pip = O=C(O)[C@@H]1CCCCN1; Aib = CC(C)(N)C(=O)O
Legend:
[1] = biological target: LCK (Homo sapiens, UniProt P06239); assay: IC50 inhibitory activity against LCK kinase; assay type: biochemical
Experimental: (§1) IC50 values were calculated by measuring the inhibitory activity against LCK, c-Src, p38a/MAPK14, ABL1, DDR1 and FGR kinases of the compounds of the present invention.

[2] = biological target: c-Src (Homo sapiens, UniProt P12931); assay: IC50 inhibitory activity against c-Src kinase; assay type: biochemical
c-Src, sequence (P12931 whole entry): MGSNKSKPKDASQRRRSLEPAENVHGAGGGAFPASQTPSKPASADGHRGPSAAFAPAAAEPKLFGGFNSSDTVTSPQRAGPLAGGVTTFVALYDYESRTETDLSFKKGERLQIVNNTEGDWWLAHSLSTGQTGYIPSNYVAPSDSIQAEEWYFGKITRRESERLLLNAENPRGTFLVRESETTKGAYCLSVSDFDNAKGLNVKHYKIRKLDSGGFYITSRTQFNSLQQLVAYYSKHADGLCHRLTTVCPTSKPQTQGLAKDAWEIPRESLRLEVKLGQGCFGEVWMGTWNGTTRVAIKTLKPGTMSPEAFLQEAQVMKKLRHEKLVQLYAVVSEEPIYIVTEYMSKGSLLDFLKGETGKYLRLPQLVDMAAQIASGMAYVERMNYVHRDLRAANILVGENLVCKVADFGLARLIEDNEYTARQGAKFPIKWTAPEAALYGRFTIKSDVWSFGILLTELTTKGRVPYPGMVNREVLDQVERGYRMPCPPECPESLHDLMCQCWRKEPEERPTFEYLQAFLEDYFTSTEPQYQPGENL
Experimental: as §1

LCK, sequence (P06239 whole entry): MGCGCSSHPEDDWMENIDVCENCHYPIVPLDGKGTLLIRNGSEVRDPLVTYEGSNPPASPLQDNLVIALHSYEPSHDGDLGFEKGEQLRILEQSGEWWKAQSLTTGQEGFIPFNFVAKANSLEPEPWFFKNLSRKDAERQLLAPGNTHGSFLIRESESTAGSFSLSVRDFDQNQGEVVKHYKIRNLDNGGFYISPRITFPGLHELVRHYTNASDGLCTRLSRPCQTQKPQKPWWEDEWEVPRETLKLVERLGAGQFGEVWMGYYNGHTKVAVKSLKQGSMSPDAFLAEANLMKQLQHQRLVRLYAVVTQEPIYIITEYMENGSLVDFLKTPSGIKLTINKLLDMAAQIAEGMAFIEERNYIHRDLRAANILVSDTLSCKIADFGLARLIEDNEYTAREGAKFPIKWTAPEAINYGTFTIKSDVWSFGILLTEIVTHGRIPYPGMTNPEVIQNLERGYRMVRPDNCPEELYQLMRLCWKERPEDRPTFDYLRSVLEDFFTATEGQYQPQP

Compound	IC50 ([1]; read-out: LCK IC50) [µM]	IC50 ([2]; read-out: c-Src IC50) [µM]	IC50 [1] [µM]	IC50 [2] [µM]
C=CCCC1=N[C@@H](CC(=O)Nc2ccc(C)c(N3Cc4cnc(Nc5ccc(C)nc5)nc4N(C)C3=O)c2)C(=O)N(Cc2ccccc2)c2ccccc21 [Example 46, (S)-2-(1-benzyl-5-(but-3-en-1-yl)-2-oxo-2,3-dihydro-1H-benzo[e][1,4]diazepin-3-yl)-N-(4-methyl-3-(1-methyl-7-((6-methylpyridin-3-yl)amino)-2-oxo-1,4-dihydropyrimido[4,5-d]pyrimidin-3(2H)-yl)phenyl)acetamide]	0.001 to 0.2	0.001 to 0.2	–	–
Cc1ccc(Nc2ncc3c(n2)N(C)C(=O)N(c2cc(NC(=O)c4ccc5c(c4)NC(=O)[C@H](Cc4ccccc4C)N=C5c4ccccc4)ccc2C)C3)cn1 [Example 29, (S)—N-(4-methyl-3-(1-methyl-7-((6-methylpyridin-3-yl)amino)-2-oxo-1,4-dihydropyrimido[4,5-d]pyrimidin-3(2H)-yl)phenyl)-3-(2-methylbenzyl)-2-oxo-5-phenyl-2,3-dihydro-1H-benzo[e][1,4]diazepine-8-carboxamide]	0.001 to 0.2	0.001 to 0.2	–	–
Cc1ccc(Nc2ncc3c(n2)N(C)C(=O)N(c2cc(C(=O)N[C@@H](C(=O)N4CCC[C@@H]4C(=O)NC(C)(C)C(=O)N[C@H](CC(C)C)C(=O)N(C)C)C(C)C)ccc2C)C3)cn1 [Example 10, (R)—N-(1-(((R)-1-(dimethylamino)-4-methyl-1-oxopentan-2-yl)amino)-2-methyl-1-oxopropan-2-yl)-1-((4-methyl-3-(1-methyl-7-((6-methylpyridin-3-yl)amino)-2-oxo-1,4-dihydropyrimido[4,5-d]pyrimidin-3(2H)-yl)benzoyl)-D-valyl)pyrrolidine-2-carboxamide] (X1-[dV][dP][Aib][dL]-NMe2)	–	–	0.2 to 0.4	> 0.6
Cc1ccc(Nc2ncc3c(n2)N(C)C(=O)N(c2cc(C(=O)N[C@H](C(=O)N4CCC[C@@H]4C(=O)NC(C)(C)C(=O)N[C@H](C(=O)N(C)C)C(C)C)C(C)C)ccc2C)C3)cn1 [Example 23, (R)—N-(1-(((S)-1-(dimethylamino)-3-methyl-1-oxobutan-2-yl)amino)-2-methyl-1-oxopropan-2-yl)-1-((4-methyl-3-(1-methyl-7-((6-methylpyridin-3-yl)amino)-2-oxo-1,4-dihydropyrimido[4,5-d]pyrimidin-3(2H)-yl)benzoyl)-L-valyl)pyrrolidine-2-carboxamide] (X1-V[dP][Aib]V-NMe2)	> 0.6	> 0.6	–	–
Cc1ccc(Nc2ncc3c(n2)N(C)C(=O)N(c2cc(C(=O)N[C@H](C(=O)N4CCC[C@H]4C(=O)NC(C)(C)C(=O)N[C@H](C(=O)N(C)C)C(C)C)C(C)C)ccc2C)C3)cn1 [Example 22, (S)—N-(1-(((S)-1-(dimethylamino)-3-methyl-1-oxobutan-2-yl)amino)-2-methyl-1-oxopropan-2-yl)-1-((4-methyl-3-(1-methyl-7-((6-methylpyridin-3-yl)amino)-2-oxo-1,4-dihydropyrimido[4,5-d]pyrimidin-3(2H)-yl)benzoyl)-L-valyl)pyrrolidine-2-carboxamide] (X1-VP[Aib]V-NMe2)	> 0.6	> 0.6	–	–
Cc1ccc(Nc2ncc3c(n2)N(C)C(=O)N(c2cc(NC(=O)c4ccc5c(c4)NC(=O)[C@@H](Cc4ccccc4)N=C5c4ccccc4)ccc2C)C3)cn1 [Example 36, (R)-3-benzyl-N-(4-methyl-3-(1-methyl-7-((6-methylpyridin-3-yl)amino)-2-oxo-1,4-dihydropyrimido[4,5-d]pyrimidin-3(2H)-yl)phenyl)-2-oxo-5-phenyl-2,3-dihydro-1H-benzo[e][1,4]diazepine-8-carboxamide]	0.001 to 0.2	0.001 to 0.2	–	–
COCCN1C(=O)[C@H](CC(C)C)N=C(c2ccccc2)c2ccc(C(=O)Nc3ccc(C)c(N4Cc5cnc(Nc6ccc(C)nc6)nc5N(C)C4=O)c3)cc21 [Example 42, (S)-3-isobutyl-1-(2-methoxyethyl)-N-(4-methyl-3-(1-methyl-7-((6-methylpyridin-3-yl)amino)-2-oxo-1,4-dihydropyrimido[4,5-d]pyrimidin-3(2H)-yl)phenyl)-2-oxo-5-phenyl-2,3-dihydro-1H-benzo[e][1,4]diazepine-8-carboxamide]	0.001 to 0.2	0.001 to 0.2	–	–
Cc1ccc(Nc2ncc3c(n2)N(C)C(=O)N(c2cc(C(=O)N[C@H](C(=O)N4CCCC[C@H]4C(=O)NC(C)(C)C(=O)N[C@@H](CC(C)C)C(=O)N(C)C)C(C)C)ccc2C)C3)cn1 [Example 13, (S)—N-(1-(((S)-1-(dimethylamino)-4-methyl-1-oxopentan-2-yl)amino)-2-methyl-1-oxopropan-2-yl)-1-((4-methyl-3-(1-methyl-7-((6-methylpyridin-3-yl)amino)-2-oxo-1,4-dihydropyrimido[4,5-d]pyrimidin-3(2H)-yl)benzoyl)-L-valyl)piperidine-2-carboxamide] (X1-V[Pip][Aib]L-NMe2)	0.001 to 0.2	0.4 to 0.6	–	–
Cc1ccc(Nc2ncc3c(n2)N(C)C(=O)N(c2cc(NC(=O)c4ccc5c(c4)NC(=O)[C@H](Cc4cccc(F)c4)N=C5c4ccccc4)ccc2C)C3)cn1 [Example 27, (S)-3-(3-fluorobenzyl)-N-(4-methyl-3-(1-methyl-7-((6-methylpyridin-3-yl)amino)-2-oxo-1,4-dihydropyrimido[4,5-d]pyrimidin-3(2H)-yl)phenyl)-2-oxo-5-phenyl-2,3-dihydro-1H-benzo[e][1,4]diazepine-8-carboxamide]	0.001 to 0.2	0.001 to 0.2	–	–
Cc1ccc(Nc2ncc3c(n2)N(C)C(=O)N(c2cc(C(=O)N[C@H](C(=O)N4CCC[C@H]4C(=O)N[C@@H](Cc4ccccc4)C(=O)N[C@@H](CC(C)C)C(=O)N(C)C)C(C)C)ccc2C)C3)cn1 [Example 11] (X1-VPFL-NMe2)	0.001 to 0.2	0.001 to 0.2	–	–
Cc1ccc(Nc2ncc3c(n2)N(C)C(=O)N(c2cc(C(=O)N[C@@H](Cc4ccccc4)C(=O)N4CCC[C@H]4C(=O)NC(C)(C)C(=O)N[C@H](C(=O)N(C)C)C(C)C)ccc2C)C3)cn1 [Example 24, (S)—N-(1-(((S)-1-(dimethylamino)-3-methyl-1-oxobutan-2-yl)amino)-2-methyl-1-oxopropan-2-yl)-1-((4-methyl-3-(1-methyl-7-((6-methylpyridin-3-yl)amino)-2-oxo-1,4-dihydropyrimido[4,5-d]pyrimidin-3(2H)-yl)benzoyl)-L-phenylalanyl)pyrrolidine-2-carboxamide] (X1-FP[Aib]V-NMe2)	0.001 to 0.2	> 0.6	–	–
CC1=N[C@@H](CC(C)C)C(=O)N(C)c2cc(C(=O)Nc3ccc(C)c(N4Cc5cnc(Nc6ccc(C)nc6)nc5N(C)C4=O)c3)ccc21 [Example 40, (S)-3-isobutyl-1,5-dimethyl-N-(4-methyl-3-(1-methyl-7-((6-methylpyridin-3-yl)amino)-2-oxo-1,4-dihydropyrimido[4,5-d]pyrimidin-3(2H)-yl)phenyl)-2-oxo-2,3-dihydro-1H-benzo[e][1,4]diazepine-8-carboxamide]	0.001 to 0.2	0.001 to 0.2	–	–
Cc1ccc(Nc2ncc3c(n2)N(C)C(=O)N(c2cc(C(=O)N[C@H](C(=O)N4CCC[C@H]4C(=O)N[C@H](C(=O)N[C@H](C)c4ccccc4)C(C)C)C(C)C)ccc2C)C3)cn1 [Example 9, (S)—N—((S)-3-methyl-1-oxo-1-(((R)-1-phenylethyl)amino)butan-2-yl)-1-((4-methyl-3-(1-methyl-7-((6-methylpyridin-3-yl)amino)-2-oxo-1,4-dihydropyrimido[4,5-d]pyrimidin-3(2H)-yl)benzoyl)-L-valyl)pyrrolidine-2-carboxamide]	0.001 to 0.2	> 0.6	–	–

— US11530221B2, “Pyrimido[4,5-d]pyrimidin-2-one derivatives as protein kinase inhibitors” (KOREA INSTITUTE OF SCIENCE AND TECHNOLOGY, priority 2019, dated 2022)
